Reference: patent US20150173364A1, “HERBICIDAL COMPOSITIONS CONTAINING FLUMIOXAZIN, AMINOPYRALID AND FLUROXYPYR OR 2,4-D” (Dow AgroSciences LLC, priority 2013, published 2015)

Tested on: BOIVE: whitehead broom (Borerria verticillata)
Assay: Postemergence herbicidal activity of mixtures in the field, visual weed control
Type: in vivo
Settings: postemergence field trial
Experimental: Field trials were conducted in Brazil in pasture area cultivated with Brachiaria brizantha using standard herbicide small-plot research methodology. The plot size used was 3 meters (m)×8 m (width×length) with 4 replicates per treatment. The pasture was grown using normal cultural practices for fertilization, management, and maintenance to ensure good growth of the crop and the weeds. […] All treatment results, both for the single product and mixtures, are an average of 3 to 4 replicates and the tank-mix interactions are significant at the […] level. Colby's equation was used to determine the herbicidal effects expected from the mixtures (Colby, S. R. Calculation of the synergistic and antagonistic response of herbicide combinations. […] However, the experiments described herein were performed such that active ingredients B and C were combined and only the efficacy of the combination was determined. As such, Colby's equation simplifies to Expected=A+Z−(AZ/100) A=observed efficacy of active ingredient A (flumioxazin) at the same concentration as used in the mixture; […] All comparisons are an average of 3 to 4 replicates and are significant at the […] level.

C#CCN1C(=O)COc2cc(F)c(N3C(=O)C4=C(CCCC4)C3=O)cc21 [Flumioxazin, 2-[7-fluoro-3,4-dihydro-3-oxo-4-(2-propyn-1-yl)-2H-1,4-benzoxazin-6-yl]-4,5,6,7-tetrahydro-1H-isoindole-1,3(2H)-dione]
% Visual Control BOIVE (281 DAA) Obs (Flumioxazin 25 g ai/ha alone): 0% | % Visual Control BOIVE (281 DAA) Obs (Flumioxazin 50 g ai/ha alone): 0% | % Visual Control BOIVE (281 DAA) Obs (Flumioxazin 75 g ai/ha alone): 4% | % Visual Control BOIVE (281 DAA) Obs (Flumioxazin 100 g ai/ha alone): 13% | % Visual Control BOIVE (281 DAA) Obs (Flumioxazin 125 g ai/ha alone): 14%
